Data from US8232401B2 (Japan Tobacco Inc., priority 2002, dated 2012).

Biological target: T1, HIV integrase (Human immunodeficiency virus type 1 group M subtype B, UniProt P12497, F1332H)
T1 construct: HIV integrase full length gene; made in house; host or cells: Escherichia coli BL21(DE3)
Assay: Determination of enzyme (HIV integrase) inhibitory activity (strand transfer, microtiter plate, absorbance at 450 nm)
Format: biochemical, HIV (Human Immunodeficiency Virus (type 1))
Conditions: recombinant HIV integrase (F185H) expressed in E. coli; donor DNA on streptavidin plate, digoxigenin target DNA; 37° C.
Protocol: The following explains evaluation methods of the HIV integrase inhibitory activity of the compound of the present invention.
(i) Construction of Recombinant Integrase Gene Expression System
(ii) Production and Purification of Integrase Protein
Escherichia coli recombinant BL21(DE3) transformed with plasmid pET21a-IN-F185H obtained in (i) was shake cultured at 30° C. in a liquid medium containing ampicillin. When the culture reached the logarithmic growth phase, isopropyl-β-D-thiogalactopyranoside was added to promote expression of integrase gene. The culture was continued for 3 hrs to promote accumulation of the integrase protein. The recombinant E. coli was collected in pellets by centrifugal separation and preserved at −80° C.
The E. coli was suspended in Lysis buffer (20 mM HEPES (pH 7.5), 5 mM DTT, 10 mM CHAPS, 10% glycerol) containing 1M sodium chloride and subjected to repeat pressurization and depressurization for rupture, and centrifugal separation at 4° C., 40,000×g, 60 min to recover a water-soluble fraction (supernatant). This was diluted 10-fold with Lysis buffer free of sodium chloride, mixed with SP-Sepharose (Pharmacia Corporation) and stirred at 4° C. for 60 min to allow adsorption of integrase protein to the resin. The resin was washed with Lysis buffer containing 100 mM sodium chloride and the integrase protein was eluted with Lysis buffer containing 1M sodium chloride.
The eluted integrase protein solution was applied to a Superdex 75 (Pharmacia Corporation) column for gel filtration. The protein was eluted with Lysis buffer containing 1M sodium chloride.
The obtained fractions of the integrate protein were collected and preserved at −80° C.
(iii) Preparation of DNA Solution
The following DNA synthesized by Greiner was dissolved in TE buffer (10 mM Tris-hydrochloric acid (pH 8.0), 1 mM EDTA) and mixed with donor DNA, target DNA, each complementary strand (+ and − strands) to 1 μM. The mixture was heated at 95° C. for 5 min, 80° C. for 10 min, 70° C. for 10 min, 60° C. for 10 min, 50° C. for 10 min and 40° C. for 10 min and preserved at 25° C. to give a double stranded DNA, which was used for the test. Donor DNA (− strand having biotin attached to the 5′ terminal)
(iv) Determination of Enzyme (HIV Integrase) Inhibitory activity
The donor DNA was diluted with TE buffer to 10 nM, of which 50 μl was added to each well of streptavidin-coated microtiter plate (Roche) and allowed to adsorb at 37° C. for 60 min. The DNA was washed with phosphate buffer (Dulbecco PBS, Sanko Junyaku Co., Ltd.) containing 0.1% Tween 20 and phosphate buffer. Then, a reaction mixture (70 μl) having the following composition, a test substance (10 μl) diluted with the reaction mixture and […] integrase protein (10 μl) were added to each well and reacted at 37° C. for 60 min.
Then, 50 nM target DNA (1.0 μl) was added, reacted at 37° C. for 10 min and washed with phosphate buffer containing 0.1% Tween 20 to stop the reaction.
Then, 100 mU/ml peroxidase labeled anti-digoxigenin antibody solution (Roche, 100 μl) was added, and the mixture was reacted at 37° C. for 60 min, followed by washing with phosphate buffer containing 0.1% Tween 20.
A peroxidase color solution (Bio Rad, 100 μl) was added and allowed to react at room temperature for 4 min. The color reaction was stopped by adding 1N sulfuric acid (100 μl). The absorbance at 450 nm was measured.
The HIV integrase inhibitory activity (IC50) of the compound of the present invention was calculated from the inhibition rate according to the following formula. […] Evaluation of Antiviral Activity

Row | SMILES | IC50
1 | CC(C)Oc1cc(Cc2cccc(Cl)c2F)cc2c(=O)c(C(=O)O)cn([C@H](CO)C3CCCCC3)c12 [Example 4-50, (S)-6-(3-Chloro-2-fluorobenzyl)-1-(1-cyclohexyl-2-hydroxyethyl)-8-isopropyloxy-4-oxo-1,4-dihydroquinoline-3-carboxylic acid] | 3.1 nM
2 | O=C(O)c1cn(CC2CCCC2)c2ccc(Cc3cccc(Cl)c3Cl)cc2c1=O [Example 1-40, 1-Cyclopentylmethyl-6-(2,3-dichlorobenzyl)-4-oxo-1,4-dihydroquinoline-3-carboxylic acid] | 110 nM
3 | CCN(CC)c1ccccc1Cc1ccc2c(c1)c(=O)c(C(=O)O)cn2CCO [Example 3-42, 6-(2-Diethylaminobenzyl)-1-(2-hydroxyethyl)-4-oxo-1,4-dihydroquinoline-3-carboxylic acid] | 720 nM
4 | CCC[C@@H](CO)n1cc(C(=O)O)c(=O)c2cc(Cc3cccc(Cl)c3F)c(OCC)cc21 [Example 4-36, (S)-6-(3-Chloro-2-fluorobenzyl)-7-ethoxy-1-[1-(hydroxymethyl)butyl]-4-oxo-1,4-dihydroquinoline-3-carboxylic acid] | 3.7 nM
5 | CC(C)Oc1cc2c(cc1Cc1cccc(Cl)c1F)c(=O)c(C(=O)O)cn2[C@@H](C)CO [Example 3-74] | 4.9 nM
6 | CS(=O)(=O)Nn1cc(C(=O)O)c(=O)c2cc(Cc3cccc(Cl)c3Cl)ccc21 [Example 2-4, 6-(2,3-Dichlorobenzyl)-1-methanesulfonylamino-4-oxo-1,4-dihydroquinoline-3-carboxylic acid] | 18 nM
7 | CCOC(=O)NCCn1cc(C(=O)O)c(=O)c2cc(Cc3cccc(Cl)c3Cl)ccc21 [Example 1-49, 6-(2,3-Dichlorobenzyl)-1-(2-ethoxycarbonylaminoethyl)-4-oxo-1,4-dihydroquinoline-3-carboxylic acid] | 53 nM
8 | O=C(O)c1cn(CCO)c2cc(C(F)(F)F)c(Cc3cccc(Cl)c3Cl)cc2c1=O [Example 3-22, 6-(2,3-Dichlorobenzyl)-1-(2-hydroxyethyl)-4-oxo-7-trifluoromethyl-1,4-dihydroquinoline-3-carboxylic acid] | 790 nM
9 | O=C(O)c1cn(CCO)c2ccc(Cc3cccc(Cl)c3Cl)c(F)c2c1=O [Example 4-12, 6-(2,3-Dichlorobenzyl)-5-fluoro-1-(2-hydroxyethyl)-4-oxo-1,4-dihydroquinoline-3-carboxylic acid] | 65 nM
10 | O=C(O)c1cn(C2CCCC2)c2ccc(Cc3cccc(Cl)c3Cl)cc2c1=O [Example 3-13, 1-Cyclopentyl-6-(2,3-dichlorobenzyl)-4-oxo-1,4-dihydroquinoline-3-carboxylic acid] | 29 nM
11 | O=C(O)c1cn(CCO)c2ccc(Cc3cccc(-c4ccccc4)c3)cc2c1=O [Example 1-88] | 450 nM
12 | CN(C)S(=O)(=O)Cn1cc(C(=O)O)c(=O)c2cc(Cc3cccc(Cl)c3Cl)ccc21 [Example 1-72, 6-(2,3-Dichlorobenzyl)-1-dimethylsulfamoylmethyl-4-oxo-1,4-dihydroquinoline-3-carboxylic acid] | 25 nM
13 | CCOc1cc2c(cc1Cc1cccc(Cl)c1F)c(=O)c(C(=O)O)cn2[C@H](CO)C(C)C [Example 4-30, (S)-6-(3-Chloro-2-fluorobenzyl)-7-ethoxy-1-(1-hydroxymethyl-2-methylpropyl)-4-oxo-1,4-dihydroquinoline-3-carboxylic acid] | 2.9 nM
14 | CC(C)Oc1cc(Cc2cccc(Cl)c2F)cc2c(=O)c(C(=O)O)cn(CCO)c12 [Example 3-59, 6-(3-Chloro-2-fluorobenzyl)-1-(2-hydroxyethyl)-8-isopropyloxy-4-oxo-1,4-dihydroquinoline-3-carboxylic acid] | 8 nM
15 | CCOc1cc2c(cc1Cc1cccc(Cl)c1F)c(=O)c(C(=O)O)cn2[C@@H](C)CO [Example 3-61, (S)-6-(3-Chloro-2-fluorobenzyl)-7-ethoxy-1-(2-hydroxy-1-methylethyl)-4-oxo-1,4-dihydroquinoline-3-carboxylic acid] | 7.6 nM
16 | CN(C)c1ccccc1Cc1ccc2c(c1)c(=O)c(C(=O)O)cn2CCO [Example 3-8, 6-(2-Dimethylaminobenzyl)-1-(2-hydroxyethyl)-4-oxo-1,4-dihydroquinoline-3-carboxylic acid] | 340 nM
17 | O=C(O)c1cn(CCO)c2c(Oc3ccccc3)cc(Cc3cccc(Cl)c3F)cc2c1=O [Example 3-52, 6-(3-Chloro-2-fluorobenzyl)-1-(2-hydroxyethyl)-4-oxo-8-phenoxy-1,4-dihydroquinoline-3-carboxylic acid] | 12 nM
18 | O=C(O)c1cn(CCO)c2ccc(Cc3ccccc3Cl)cc2c1=O [Example 1-87, 6-(2-Chlorobenzyl)-1-(2-hydroxyethyl)-4-oxo-1,4-dihydroquinoline-3-carboxylic acid] | 140 nM
19 | COc1cc(Cc2cccc(Cl)c2F)cc2c(=O)c(C(=O)O)cn([C@@H](C)CO)c12 [Example 3-56, (S)-6-(3-Chloro-2-fluorobenzyl)-1-(2-hydroxy-1-methylethyl)-8-methoxy-4-oxo-1,4-dihydroquinoline-3-carboxylic acid] | 12 nM
20 | COc1cc2c(cc1Cc1cccc(Cl)c1F)c(=O)c(C(=O)O)cn2[C@H](CO)C1CCCCC1 [Example 4-42, (S)-6-(3-Chloro-2-fluorobenzyl)-1-(1-cyclohexyl-2-hydroxyethyl)-7-methoxy-4-oxo-1,4-dihydroquinoline-3-carboxylic acid] | 2.3 nM
21 | CS(=O)(=O)c1ccc(Cl)c(Cc2ccc3c(c2)c(=O)c(C(=O)O)cn3CCO)c1 [Example 4-1, 6-(2-Chloro-5-methanesulfonylbenzyl)-1-(2-hydroxyethyl)-4-oxo-1,4-dihydroquinoline-3-carboxylic acid] | 860 nM
22 | CC(C)(O)Cn1cc(C(=O)O)c(=O)c2cc(Cc3cccc(Cl)c3Cl)ccc21 [Example 1-47, 6-(2,3-Dichlorobenzyl)-1-(2-hydroxy-2-methylpropyl)-4-oxo-1,4-dihydroquinoline-3-carboxylic acid] | 98 nM
23 | O=C(O)c1cn(CCF)c2ccc(Cc3cccc(Cl)c3Cl)cc2c1=O [Example 1-44, 6-(2,3-Dichlorobenzyl)-1-(2-fluoroethyl)-4-oxo-1,4-dihydroquinoline-3-carboxylic acid] | 51 nM
24 | CCOc1cc2c(cc1Cc1cccc(Cl)c1F)c(=O)c(C(=O)O)cn2[C@H](CO)C(C)(C)C [Example 4-31, (S)-6-(3-Chloro-2-fluorobenzyl)-7-ethoxy-1-[2,2-dimethyl-1-(hydroxymethyl)propyl]-4-oxo-1,4-dihydroquinoline-3-carboxylic acid] | 2.1 nM
25 | COc1c(Cc2cccc(Cl)c2Cl)ccc2c1c(=O)c(C(=O)O)cn2CCO [Example 3-1, 6-(2,3-Dichlorobenzyl)-1-(2-hydroxyethyl)-5-methoxy-4-oxo-1,4-dihydroquinoline-3-carboxylic acid] | 470 nM
26 | CC[C@H](C)[C@@H](CO)n1cc(C(=O)O)c(=O)c2cc(Cc3cccc(Cl)c3F)c(OC(C)C)cc21 [Example 4-39, 6-(3-Chloro-2-fluorobenzyl)-1-((1S,2S)-1-hydroxymethyl-2-methylbutyl)-7-isopropyloxy-4-oxo-1,4-dihydroquinoline-3-carboxylic acid] | 4.1 nM
27 | O=C(O)c1cn(CCO)c2ccc(Cc3cc(Br)ccc3Cl)cc2c1=O [Example 4-7, 6-(5-Bromo-2-chlorobenzyl)-1-(2-hydroxyethyl)-4-oxo-1,4-dihydroquinoline-3-carboxylic acid] | 130 nM
